The record followed here is patent publication US20080076664A1, “Fungicidal Compositions” (priority 2004, published 2008).

Several values for one entry are separate records, joined by “and”; a condition that tells them apart may be missing. Identical values can stand only once.

One assay concerns Leptosphaeria nodorum. Put plainly: Fungal growth assay, control of Leptosphaeria nodorum (Example B-8). Type of assay: cell-based. From the text:
(§1) The action to be expected E for a given active ingredient combination obeys the so-called COLBY formula and can be calculated as follows (COLBY, S. R. “Calculating synergistic and antagonistic responses of herbicide combination”. Weeds, Vol. 15, pages 20-22; 1967):
(§2) According to COLBY, the expected (additive) action of active ingredients A)+B) using p+q ppm of active ingredient is
(§3) If the action actually observed (O) is greater than the expected action (E), then the action of the combination is super-additive, i.e. there is a synergistic effect. In mathematical terms the synergism factor SF corresponds to O/E. In the agricultural practice an SF of ≧1.2 indicates significant improvement over the purely complementary addition of activities (expected activity), while an SF of ≦0.9 in the practical application routine signals a loss of activity compared to the expected activity.
Action Against Leptosphaeria nodorum (Glume Blotch)—Fungal Growth Assay
Conidia of the fungus from cryogenic storage were directly mixed into nutrient broth (PDB potato dextrose broth). After placing a (DMSO) solution of the test compounds into a microtiter plate (96-well format) the nutrient broth containing the fungal spores was added. […] The fungicide interactions in the combinations are calculated according to COLBY method.

Another assay has as its system Alternaria solani. Put plainly: Fungal growth assay, control of Alternaria solani (Example B-4 a). The class given is cell-based.
From the text: as §1, §2, §3
Conidia—harvested from a freshly grown colony—of the fungus were directly mixed into nutrient broth (PDB potato dextrose broth). After placing a (DMSO) solution of the test compounds into a microtiter plate (96-well format) the nutrient broth containing the fungal spores was added. […] The fungicide interactions in the combinations are calculated according to COLBY method.

[1] abbreviates: component B) alone, 0.002 ppm [mg/L].
Where [2] appears, read: component B) alone, 0.067 ppm [mg/L].
[3] abbreviates: component B) alone, 0.007 ppm [mg/L].
The mark [4] stands for this setting: component B) alone, 0.022 ppm [mg/L].
[5] abbreviates: component B) alone, 0.600 ppm [mg/L].
The mark [6] stands for this setting: Cpd Ia alone, 0.0001 ppm [mg/L].
The mark [7] stands for this setting: Cpd Ia alone, 0.0003 ppm [mg/L].
Where [8] appears, read: Cpd Ia alone, 0.0074 ppm [mg/L].

For the molecule `N#Cc1c[nH]cc1-c1cccc2c1OC(F)(F)O2` [Fludioxonil], the “Observed control in % (% Cobs)” value in the assay on Leptosphaeria nodorum (setting [1]) amounted to 7%; in the assay on Leptosphaeria nodorum (setting [2]) it was 9%; in the assay with Alternaria solani (setting [1]), 0%; in the assay with Alternaria solani (setting [3]), 0%; with Alternaria solani (setting [4]), 0%; with Alternaria solani (setting [2]) it was 25%.

On to `CC(Cc1ccc(C(C)(C)C)cc1)CN1CCCCC1` (stereo not drawn) [Fenpropidin], for which the “Observed control in % (% Cobs)” value in the assay with Leptosphaeria nodorum (setting [3]) was determined as 4%; in the assay on Leptosphaeria nodorum (setting [4]), 0%; in the assay with Alternaria solani (setting [1]) it was 0%; in the assay on Alternaria solani (setting [2]), 0%; in the assay with Alternaria solani (setting [5]) it was 0%.

Turning to `CO/C=C(/C(=O)OC)c1ccccc1Oc1cc(Oc2ccccc2C#N)ncn1` [Azoxystrobin], the “Observed control in % (% Cobs)” value came to 5% in the assay with Leptosphaeria nodorum (setting [1]), 14% in the assay on Leptosphaeria nodorum (setting [3]), 0% with Alternaria solani (setting [4]) and 31% in the assay on Alternaria solani (setting [2]).

In the case of `CC(C1CC1)C(O)(Cn1cncn1)c1ccc(Cl)cc1` (stereo not drawn) [Cyproconazole], the “Observed control in % (% Cobs)” value with Leptosphaeria nodorum (setting [1]) is listed as 3%; in the assay on Leptosphaeria nodorum (setting [3]) it was 0%; with Leptosphaeria nodorum (setting [2]) it was 4%; in the assay with Alternaria solani (setting [1]) it was 3%; in the assay on Alternaria solani (setting [3]), 0%; with Alternaria solani (setting [5]), 15%.

Turning to `Cn1cc(C(=O)Nc2ccccc2-c2ccc(C#CC(C)(C)C)cc2)c(C(F)F)n1` [Cpd Ia], the “Observed control in % (% Cobs)” value in the assay on Leptosphaeria nodorum (setting [6]) was 0% and 2%; with Leptosphaeria nodorum (setting [7]) it was 0%; in the assay on Leptosphaeria nodorum (Cpd Ia alone, 0.0025 ppm [mg/L]), 0%; in the assay on Leptosphaeria nodorum (setting [8]), 0%; in the assay with Leptosphaeria nodorum (Cpd Ia alone, 0.0222 ppm [mg/L]) it was 9% and 0% and 5% and 6%; in the assay on Leptosphaeria nodorum (Cpd Ia alone, 0.2000 ppm [mg/L]), 32% and 30%. The “Observed control in % (% Cobs)” value is 6% and 0% in the assay with Alternaria solani (setting [6]); 6% and 0% and 4% with Alternaria solani (setting [7]); 0% in the assay with Alternaria solani (Cpd Ia alone, 0.0008 ppm [mg/L]); 40% and 46% and 27% in the assay with Alternaria solani (setting [8]); 50% and 60% in the assay with Alternaria solani (Cpd Ia alone, 0.0667 ppm [mg/L]).

Regarding `CCCC1COC(Cn2cncn2)(c2ccc(Cl)cc2Cl)O1` (stereo not drawn) [Propiconazole], the results for the “Observed control in % (% Cobs)” value in the assay with Leptosphaeria nodorum (setting [1]), with Leptosphaeria nodorum (setting [4]) and in the assay on Alternaria solani (setting [3]) were 12%, 11% and 0%, respectively.

Take `N#Cc1c(Cl)c(Cl)c(Cl)c(C#N)c1Cl` [Chlorotalonil, Chlorothalonil]: the “Observed control in % (% Cobs)” value stood at 1% with Leptosphaeria nodorum (setting [1]); 0% with Leptosphaeria nodorum (setting [3]); 0% in the assay on Leptosphaeria nodorum (setting [4]); 6% in the assay on Leptosphaeria nodorum (setting [2]); 9% in the assay with Alternaria solani (setting [1]); 6% in the assay with Alternaria solani (setting [5]).

As to `Cc1cc(C2CC2)nc(Nc2ccccc2)n1` [Cyprodinil], the “Observed control in % (% Cobs)” value is listed as 3% with Alternaria solani (setting [1]), 0% in the assay with Alternaria solani (setting [3]), 0% in the assay on Alternaria solani (setting [4]) and 30% in the assay with Alternaria solani (setting [2]).
